Where two headings read alike, the source gives them in different places.
Tests used:
[1] = Pharmacokinetics in vivo in rats; parameters: species or system SD rats; settings: for clearance / half-life / Vd / AUC / Cmax / bioavailability: SD, rat, plasma; for Vd: read-out: Apparent volume of distribution (Vss); for AUC: read-out: Area under the curve of plasma concentration-time (AUC); for Cmax: read-out: Peak concentration (Cmax)
Description: 1. […] At different time points after administration, blood samples were collected into EDTA blood sample collection tubes. Plasma was separated by centrifugation and stored at −20° C. for the analysis afterwards.
2. Handling of blood samples and LC-MS/MS analysis: the standard curve and formulation and processing of quality control sample: The compound stock solution was diluted with 50% methanol in water to form a standard curve working solution containing each compound at a concentration of 40-20000 ng/mL and a quality control working solution of 120, 1200, and 16000 ng/mL. 47.5 μL of blank rat plasma were respectively taken, and added into 2.50 μL of standard curve working solution or the quality control working solution, to formulate the standard curve samples containing the compound at a concentration of 2.00-1000.00 ng/mL and the quality control samples having a concentration of […] and 800.00 ng/mL. 400 μL of acetonitrile (containing 5 ng/mL of verapamil as an internal standard) was added respectively. The samples were vortexed for 3 min, centrifuged at 20000 rcf, 4° C. for 15 min. The supernatant was taken for LC-MS/MS analysis.
3. Treatment of the compound blood samples: 5 μL of plasma sample was taken, to which 95 μL of blank rat plasma was added, and 800 μL of acetonitrile (containing 5 ng/mL of verapamil as an internal standard) was added. The samples were vortexed for 3 min, centrifuged at 15000 rcf, 4° C. for 10 min. The supernatant was taken for LC-MS/MS analysis (chromatographic column: ACQUITY UPLC® BEH C18 2.1×50 mm 1.7 μm; mobile phase A: 0.1% formic acid in water; mobile phase B: acetonitrile; flow rate: […]).
4. Analysis of the results: pharmacokinetic parameters were fit and calculated by WinNonlin software using statistical […] method, mainly including kinetic parameters Tmax, t1/2, Cmax, AUC0-t, AUC0∞, Cl, Vd, F, etc. The pharmacokinetic data were calculated and processed using Microsoft Excel, such as mean and standard deviation.

[2] = Intraocular and retinal drug concentration in rats after eye drops (HPLC); format: in vivo; settings: both sexes, SD, rat, topical, 10 μL of 2% solution per eye, twice a day for 7 days, 2% eye drops twice a day; for concentration at 1 h after the second eye drop on Day 7: 1 h after administration
Excerpt: (§1) 2.1 Experimental aminals: SPF grade male SD rats, weighed 180-200 g, were used and adaptively fed for one week.
2.2 Drugs and reagents: Compound 71 and Compound 8; sodium chloride injection (Guangxi Yuyuan Pharmaceutical Co., Ltd.); sterile filter having 0.22 μm pore size (Millex).
(§2) 2.3 Experimental animal grouping: the animals were randomly divided into 3 groups (6 rats per group) of a negative control group (normal saline), a Compound 71 group and a Compound 8 group.
(§3) 2.4 Administration method and sampling: 2% Compound (10 μl) dissolved in normal saline (after filtration) was dropped into the surface of each rat's eye with a pipette for 10 s. The eye drop was applied twice a day for a total of 7 days. Samples were taken at 1 and 16 hours after the second administration on Day 7 of administration to determine the ocular distribution concentration of the drug.
(§4) The first batch of samples: 1 hour after the second eye drop on Day 7: 3 rats (2 males and 1 female) were taken from each group. The bulbus oculi were removed, and were thoroughly rinsed for 3 times with normal saline using a pipette. The washing solution was quickly dried with a qualitative filter paper. The cornea, vitreous body and retina were separated under a stereomicroscope, and frozen at −80° C. for subsequent measurement.
as §4, with “second” for “first”, “On the morning of Day 8, i.e., at 16 hours” for “1 hour”, “7: the remaining” for “7:”, “(1 male” for “(2 males”, “2 females)” for “1 female)”, “detection.” for “measurement.”
2.7.3 Results of HPLC measurement of drug content in eye tissue: Under the selected chromatographic conditions for analysis, drug impurities were well separated. The chromatograms for a sample of standard solution, a sample of blank homogenate, a sample of blank homogenate added with Compound 71 or Compound 8, and a sample of retinal homogenate samples were compared. […] Under the selected HPLC measurement conditions, the average recovery rates for two compounds under test were both above 90%. […] The precision can meet the measurement standard. As shown by the accuracy results, the accuracy for all of the high, medium and low concentration retinal spiked quality control samples (QC) within the drug curve range was higher than 95%.

[3] = Ocular irritation after eye drops: ophthalmic observation and free protoporphyrin (FEP) in eye rinsing solution (ELISA); format: in vivo, SD rats; settings: 2% eye drops (10 μl) twice a day for 7 days
Description: as §1, §2, §3
[…] The rinsing solution was frozen at −80° C. for subsequent detection of irritant inflammatory response on the surface of the bulbus oculi.
2.7.2 Result of measurement of secretion of porphyrin: it was further determined whether inflammation or bleeding in the eyes occurred after eye drops by ELISA essay of free protoporphyrin (FEP) in erythrocytes. As indicated by the results, the level of FEP in the sample of eye rinsing solution was at a low concentration level for the rats in both the test drug group and the negative control group. There was no significant difference (P>0.05).

[4] = 3 mg/kg oral administration in rats (Table 2A)
[5] = 3 mg/kg intravenous injection in rats
[6] = cornea, read-out: Content of test compound in Cornea
[7] = cornea, 16 h after administration, read-out: Content of test compound in Cornea
[8] = retina, read-out: Content of test compound in Retina
[9] = retina, 16 h after administration, read-out: Content of test compound in Retina
[10] = vitreous body, read-out: Content of test compound in Vitreous body
[11] = vitreous body, 16 hours after administration, read-out: Content of test compound in Vitreous body

| Structure (SMILES) | Peak time [1, 4] | clearance [1, 5] | half-life [1, 5] | Vd [1, 5] | AUC [1, 5] | Cmax [1, 5] | bioavailability [1, 4] | half-life [1, 4] | AUC [1, 4] | Cmax [1, 4] | concentration at 1 h after the second eye drop on Day 7 [2, 6] | concentration at 16 h after the second eye drop on Day 7 [2, 7] | concentration at 1 h after the second eye drop on Day 7 [2, 8] | concentration at 16 h after the second eye drop on Day 7 [2, 9] | concentration at 1 h after the second eye drop on Day 7 [2, 10] | concentration at 16 h after the second eye drop on Day 7 [2, 11] | FEP expression level in eye rinsing solution, Left eye ([3]; 1 h) | FEP expression level in eye rinsing solution, Right eye ([3]; 1 h) | FEP expression level in eye rinsing solution, Left eye ([3]; 16 h) | FEP expression level in eye rinsing solution, Right eye ([3]; 16 h) |
| --- | --- | --- | --- | --- | --- | --- | --- | --- | --- | --- | --- | --- | --- | --- | --- | --- | --- | --- | --- | --- |
| CCOc1ccc(-c2c(F)cc(NC(=O)N3CCC(C(C)(C)C)CC3)cc2-c2nn[nH]n2)cn1 [Compound 8, 4-(tert-butyl)-N-(4-(6-ethoxypyrid-3-yl)-3-fluoro-5-(2H-tetrazol-5-yl)phenyl)piperidine-1-carboxamide] | 0.78 h | 9.87 mL/min/kg | 33.6 min | 0.328 L/kg | 5090 ng·h/mL | 16400 ng/mL | 6.1% | 202 min | 3130 ng·h/mL | 1390 ng/mL | 101000 ± 28200 ng/g | 40700 ± 18800 ng/g | 55000 ± 6910 ng/g | 15800 ± 8410 ng/g | 18200 ± 4650 ng/g | 10100 ± 2670 ng/g | 1.53 ± 0.03 ng/mL | 1.45 ± 0.02 ng/mL | 1.57 ± 0.08 ng/mL | 1.57 ± 0.06 ng/mL |
| CCOc1ccc(-c2ccc(NC(=O)N[C@H]3CC[C@H](C)CC3)cc2-c2nn[nH]n2)cn1 [Compound 71, 1-(4-(6-ethoxypyrid-3-yl)-3-(2H-tetrazol-5-yl)phenyl)-3-((trans)-4-methylcyclohexyl)urea] | 2.72 h | 2.42 mL/min/kg | 55.8 min | 0.156 L/kg | 20700 ng·h/mL | 37500 ng/mL | 3.6% | 218 min | 7480 ng·h/mL | 914 ng/mL | 93100 ± 16900 ng/g | 43500 ± 6590 ng/g | 64800 ± 18300 ng/g | 6070 ± 3060 ng/g | 24200 ± 7070 ng/g | 12700 ± 3490 ng/g | 1.50 ± 0.02 ng/mL | 1.54 ± 0.08 ng/mL | 1.61 ± 0.06 ng/mL | 1.55 ± 0.09 ng/mL |
